Article PMC7217877, “N-AS-triggered SPMs are direct regulators of microglia in a model of Alzheimer’s disease” (Nature Communications, 2020)
Several values for one entry are separate records, joined by “and”; a condition that tells them apart may be missing. Equal values may be shown once.

Columns and labels:
[1] = tested on: neuron; experiment: N-AS generation in primary cultured cells (LC-MS/MS); type: cell-based, C57BL/6 mice; parameters: N-AS quantification (Fig 3a): dose or concentration left out as unconfirmed; conditions: replicates
Experimental: (§1) Reactions were quenched by adding equal volume of cold methanol. A 100 μl aliquot of the reaction mixture was mixed with 30 μl of distilled water containing 5 ng ml^−1 of furosemide (internal standard) for 1 min and vigorously mixed with […] of ethyl acetate for 20 min. After centrifugation at 16,000×g for 10 min, the mixtures were kept for 2 h for freezing aqueous phase. The upper ethyl acetate layer was transferred to a clean tube and evaporated to dryness under a gentle stream of nitrogen. Then, the dried extract was reconstituted in 100 µl of mobile phase and 10 µl aliquot of the solution was injected into an Agilent 6470 Triple Quad LC–MS/MS system (Agilent, Wilmington, DE) coupled with an Agilent 1260 HPLC system. Separation was performed on a Synergy Polar RP column (4 μm particle size, 2.0 mm × 150 mm, Phenomenex) using a mobile phase that consisted of methanol and water (95:5, v/v) with 0.1% formic acid at a flow rate of 0.2 ml min^−1. Quantification was carried out using multiple reaction monitoring (MRM) at m/z 340.3→263.3 for N-AS and m/z 328.9→284.8 for furosemide (internal standard) in negative ionization mode and collision energy of 20 eV. […] Also, to confirm N-AS generation in neurons, microglia, and astrocytes, these cells were treated with Aβ, and sonicated in neuronal and glial culture medium. […] To evaluate N-AS in microglia and neurons in vivo, the cells were isolated from WT mice, APP/PS1 mice and APP/PS1 mice treated with N-AS at 9 months of age. The cells were sonicated and resuspended in glial and neuronal culture medium, respectively. A 100 μl aliquot of each cell lysate were used for the determination of N-AS using a method previously described.
(§2) To confirm the generation and roles of N-AS in neurons, cells from E18 C57BL/6 mice were prepared as previously described. Cortices were dissected and then dissociated followed by incubation in papain (Worthington) at 37 °C for 15 min. […] Aβ 1–42 (10 μM, 24 h, Invitrogen, 03112) was exposed to neurons and the cells were analyzed for the generation and roles of N-AS. […]

[2] = tested on: immortalized human microglia; experiment: N-AS generation in human microglia (LC-MS/MS, Supplementary Fig 6a); type: cell-based
Experimental: as §1, §2

## Ab: Aβ 1–42 (Invitrogen, 03112) used to induce an AD environment in cells
[1]; Ab, no supplement
  N-AS quantification (Fig 3g): 0.5069 and 0.4708 and 0.3905 and 0.3625 and 0.4347
[1]; Ab
  N-AS quantification (Fig 3a): 0.5349 and 0.246 and 0.4789 and 0.3905 and 0.3625 and 0.4347
[2]; Aβ-treated human microglia
  N-AS generation, in words: reduction of N-AS generation

## CC(=O)SCCNC(=O)CCNC(=O)[C@H](O)C(C)(C)COP(=O)(O)OP(=O)(O)OC[C@H]1O[C@@H](n2cnc3c(N)ncnc32)[C@H](O)[C@@H]1OP(=O)(O)O [Acetyl-CoA, acetyl-CoA]
[1]; Ab + supplement
  N-AS quantification (Fig 3g): 0.4129 and 0.455 and 0.2582 and 0.5811 and 0.497
[2]; Ab 50mM + Acetyl CoA 100mM, sFig 6a
  N-AS generation in human microglia: 10.5625 and 12.1817 and 11.3721 and 11.7769
[2]; Aβ-treated human microglia + acetyl-CoA
  N-AS generation, acetyl-S565 COX2 and SPM secretion, in words: restored
